# Assay results from PubChem BioAssay AID1963978 (Molecular Pharmacology Branch, DTP, NCI, 2024).
# pIC50: −log10 of the molar value.
# Tested on: 616215-338-R-J1-PDC spheroids with HUVEC/MSC, viability
# Experiment: Anticancer human tumor 616215-338-R-J1-PDC patient-derived colon adenocarcinoma cell line growth inhibition [PI3K]
# Conditions: for pIC50: curve of first compound; for viability, T/C: stronger effect = lower value
# In short: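 High-throughput combination screen: PI3K inhibitors crossed with targeted small molecules on complex spheroids of tumor cells, HUVEC and MSCs at 37 degrees C, 5% CO2. Top concentration was at or near clinical Cmax (otherwise 10 microM), with half-log decrements.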
# [1] = second compound 0.00316 µM, first compound 0.0316 µM
# [2] = second compound 0.00316 µM, first compound 0.1 µM
# [3] = second compound 0.00316 µM, first compound 0.316 µM
# [4] = second compound 0.00316 µM, first compound 1 µM
# [5] = second compound 0.00316 µM, first compound 3.16 µM
# [6] = second compound 0.00316 µM, first compound 10 µM
# [7] = second compound 0.01 µM, first compound 0.0316 µM
# [8] = second compound 0.01 µM, first compound 0.1 µM
# [9] = second compound 0.01 µM, first compound 0.316 µM
# [10] = second compound 0.01 µM, first compound 1 µM
# [11] = second compound 0.01 µM, first compound 3.16 µM
# [12] = second compound 0.01 µM, first compound 10 µM
# [13] = second compound 0.0316 µM, first compound 0.0316 µM
# [14] = second compound 0.0316 µM, first compound 0.1 µM
# [15] = second compound 0.0316 µM, first compound 0.316 µM
# [16] = second compound 0.0316 µM, first compound 1 µM
# [17] = second compound 0.0316 µM, first compound 3.16 µM
# [18] = second compound 0.0316 µM, first compound 10 µM
# [19] = second compound 0.1 µM, first compound 0.0316 µM
# [20] = second compound 0.1 µM, first compound 0.1 µM
# [21] = second compound 0.1 µM, first compound 0.316 µM
# [22] = second compound 0.1 µM, first compound 1 µM
# [23] = second compound 0.1 µM, first compound 3.16 µM
# [24] = second compound 0.1 µM, first compound 10 µM
# [25] = second compound 0.316 µM, first compound 0.0316 µM
# [26] = second compound 0.316 µM, first compound 0.1 µM
# [27] = second compound 0.316 µM, first compound 0.316 µM
# [28] = second compound 0.316 µM, first compound 1 µM
# [29] = second compound 0.316 µM, first compound 3.16 µM
# [30] = second compound 0.316 µM, first compound 10 µM
# [31] = second compound 1 µM, first compound 0.0316 µM
# [32] = second compound 1 µM, first compound 0.1 µM
# [33] = second compound 1 µM, first compound 0.316 µM
# [34] = second compound 1 µM, first compound 1 µM
# [35] = second compound 1 µM, first compound 3.16 µM
# [36] = second compound 1 µM, first compound 10 µM
# 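Also: spheroids exposed to agents for seven days before the viability read.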
smiles,measurement,setting,value
C#Cc1c(F)ccc2cc(O)cc(-c3ncc4c(N5CC6CCC(C5)N6)nc(OCC56CCCN5CC(F)C6)nc4c3F)c12 (stereo unspecified) + CC(Nc1ccc2c(c1)OCCn1cc(N3C(=O)OCC3C(F)F)nc1-2)C(N)=O,pIC50,second compound 0.00316 µM,< 5.00
same,pIC50,second compound 0.01 µM,< 5.00
same,pIC50,second compound 0.0316 µM,< 5.00
same,pIC50,second compound 0.1 µM,< 5.00
same,pIC50,second compound 0.316 µM,5.16
same,pIC50,second compound 1 µM,5.15
same,"viability, T/C",[1],102%
same,"viability, T/C",[2],79.6%
same,"viability, T/C",[3],111%
same,"viability, T/C",[4],100%
same,"viability, T/C",[5],90.5%
same,"viability, T/C",[6],74.6%
same,"viability, T/C",[7],90%
same,"viability, T/C",[8],94%
same,"viability, T/C",[9],102%
same,"viability, T/C",[10],95.7%
same,"viability, T/C",[11],98.2%
same,"viability, T/C",[12],62.2%
same,"viability, T/C",[13],96%
same,"viability, T/C",[14],95.4%
same,"viability, T/C",[15],106%
same,"viability, T/C",[16],99.7%
same,"viability, T/C",[17],81.8%
same,"viability, T/C",[18],62.6%
same,"viability, T/C",[19],101%
same,"viability, T/C",[20],100%
same,"viability, T/C",[21],101%
same,"viability, T/C",[22],83.1%
same,"viability, T/C",[23],79.7%
same,"viability, T/C",[24],52.8%
same,"viability, T/C",[25],100%
same,"viability, T/C",[26],96.5%
same,"viability, T/C",[27],95.9%
same,"viability, T/C",[28],87.2%
same,"viability, T/C",[29],71.4%
same,"viability, T/C",[30],39.5%
same,"viability, T/C",[31],95.3%
same,"viability, T/C",[32],84.2%
same,"viability, T/C",[33],90.1%
same,"viability, T/C",[34],86.9%
same,"viability, T/C",[35],67.5%
same,"viability, T/C",[36],42.6%
C=CC(=O)N1CCN(c2nc(=O)n(-c3c(C)ccnc3C(C)C)c3nc(-c4c(O)cccc4F)c(F)cc23)C(C)C1 (stereo unspecified) + CC(Nc1ccc2c(c1)OCCn1cc(N3C(=O)OCC3C(F)F)nc1-2)C(N)=O,pIC50,second compound 0.00316 µM,< 5.00
same,pIC50,second compound 0.01 µM,< 5.00
same,pIC50,second compound 0.0316 µM,< 5.00
same,pIC50,second compound 0.1 µM,< 5.00
same,pIC50,second compound 0.316 µM,< 5.00
same,pIC50,second compound 1 µM,< 5.00
same,"viability, T/C",[1],95.9%
same,"viability, T/C",[2],101%
same,"viability, T/C",[3],86.8%
same,"viability, T/C",[4],103%
same,"viability, T/C",[5],100%
same,"viability, T/C",[6],87.5%
same,"viability, T/C",[7],91.8%
same,"viability, T/C",[8],100%
same,"viability, T/C",[9],84.2%
same,"viability, T/C",[10],98.1%
same,"viability, T/C",[11],99.1%
same,"viability, T/C",[12],95.6%
same,"viability, T/C",[13],102%
same,"viability, T/C",[14],106%
same,"viability, T/C",[15],110%
same,"viability, T/C",[16],103%
same,"viability, T/C",[17],95.6%
same,"viability, T/C",[18],90.9%
same,"viability, T/C",[19],89.8%
same,"viability, T/C",[20],92.6%
same,"viability, T/C",[21],91.1%
same,"viability, T/C",[22],97.3%
same,"viability, T/C",[23],98%
same,"viability, T/C",[24],84.2%
same,"viability, T/C",[25],114%
same,"viability, T/C",[26],99.3%
same,"viability, T/C",[27],95.7%
same,"viability, T/C",[28],100%
same,"viability, T/C",[29],97.8%
same,"viability, T/C",[30],105%
same,"viability, T/C",[31],101%
same,"viability, T/C",[32],96.7%
same,"viability, T/C",[33],105%
same,"viability, T/C",[34],97.1%
same,"viability, T/C",[35],90.6%
same,"viability, T/C",[36],81.6%
CC(Cn1ccc(-c2ccc(C#N)c(Cl)c2)n1)NC(=O)c1cc(C(C)O)[nH]n1 (stereo unspecified) + CC(Nc1ccc2c(c1)OCCn1cc(N3C(=O)OCC3C(F)F)nc1-2)C(N)=O,pIC50,second compound 0.00316 µM,< 5.00
same,pIC50,second compound 0.01 µM,< 5.00
same,pIC50,second compound 0.0316 µM,< 5.00
same,pIC50,second compound 0.1 µM,< 5.00
same,pIC50,second compound 0.316 µM,< 5.00
same,pIC50,second compound 1 µM,< 5.00
same,"viability, T/C",[1],90.8%
same,"viability, T/C",[2],94%
same,"viability, T/C",[3],91.2%
same,"viability, T/C",[4],93.6%
same,"viability, T/C",[5],92.4%
same,"viability, T/C",[6],94.3%
same,"viability, T/C",[7],89.3%
same,"viability, T/C",[8],105%
same,"viability, T/C",[9],102%
same,"viability, T/C",[10],92.4%
same,"viability, T/C",[11],92.3%
same,"viability, T/C",[12],104%
same,"viability, T/C",[13],94.4%
same,"viability, T/C",[14],105%
same,"viability, T/C",[15],90.1%
same,"viability, T/C",[16],101%
same,"viability, T/C",[17],96.3%
same,"viability, T/C",[18],101%
same,"viability, T/C",[19],107%
same,"viability, T/C",[20],88%
same,"viability, T/C",[21],96.8%
same,"viability, T/C",[22],102%
same,"viability, T/C",[23],105%
same,"viability, T/C",[24],94.4%
same,"viability, T/C",[25],109%
same,"viability, T/C",[26],104%
same,"viability, T/C",[27],107%
same,"viability, T/C",[28],101%
same,"viability, T/C",[29],101%
same,"viability, T/C",[30],110%
same,"viability, T/C",[31],101%
same,"viability, T/C",[32],99.8%
same,"viability, T/C",[33],104%
same,"viability, T/C",[34],103%
same,"viability, T/C",[35],99.4%
same,"viability, T/C",[36],97.8%
